Experimental data taken from US11767332B2, “Glucose-sensitive albumin-binding derivatives” (Novo Nordisk A/S, priority 2017, dated 2023).
“Also recorded” adds a separate entry of the source.

Key:
[1] = molecular target: human serum albumin (HSA) (Homo sapiens (Human), UniProt P02768); experiment: Fluorine (19F) NMR assay, glucose-sensitive albumin binding; conditions: 0.1 mM compound, 1 mM HSA, 50 mM glucose, pH 7.4
Procedure: Diboron compound is dissolved at a 0.1 mM concentration in a 50 mM phosphate buffer pH 7.4, 10% deuterated water (D2O), and mixed with 0, 0.1, 0.2, 0.5, 1 and 2 mM human serum albumin (HSA). An additional sample with diboron compound in the presence of 1 mM HSA and 50 mM glucose is prepared.
The samples are then placed into 3 mm standard NMR tube (Bruker) and transferred for analysis to a 400 Mhz Bruker spectrometer equipped with a cryoprobe suitable for fluorine detection. The experiment is carried out with standard Bruker zgflqn pulse sequence at room temperature with enough scans to have a S/N ratio over 50 for the 0 mM HSA sample. The spectra are processed, visualized and compared by TopSpin program (Bruker).
The binding of diboron compound to HSA is qualitatively assessed by decrease of the fluorine signal of the diboron compound upon binding to HSA. Release of the diboron compound from HSA upon addition of glucose is assessed by reappearance/increase of fluorine signal in the spectra.

[2] = Alizarin red (ARS) assay, glucose binding affinity; conditions: 20 mM phosphate buffer pH 7.4, room temperature
Procedure: (§1) The alizarin-red binding assay is a colorimetric assay used to determine the inhibition affinity of boronate compounds to glucose. The assay is based on a colour shift of alizarin-red upon binding to boronate, which shift can be followed by change in absorbance in the 330-340 nm region.
(§2) After 5 minutes of centrifugation at 4000 rpm, the plate is placed in a multi-well spectrometer (SpectraMax, Molecular Devices) for absorption detection.
(§3) The analysis is carried out at room temperature with absorption readings at 330, 340 and 520 nm, respectively. Data obtained for absorption versus concentration of boronate is then fitted (Prism 7, GraphPad) with a sigmoidal function to obtain the Kd value of boronate and ARS.
(§4) Upon complete dissolution of the compound, 200 μM of Alizarin red (ARS) is added to the solution. The ARS-boronate solution is then aliquoted into a 96 multiwell plate (black, flat and clear bottom) 1:1 with appropriate carbohydrate. In particular, D-glucose and L-lactate solutions are prepared in a 20 mM phosphate buffer pH 7.4 at these concentrations respectively: 1000, 500, 250, 100, 50, 25, 10, 5, 2.5, 1, 0.25, 0.1 mM and 2500, 1000, 500, 100, 50, 10, 5, 1, 0.5, 0.1, 0.05, 0.01 mM. The plate with ARS-boronate mixed with carbohydrate is incubated 20 minutes at room temperature. After 5 minutes of centrifugation at 4000 rpm the plate is placed in a multiwell spectrometer (Spectra Max, Molecular Devices) for absorption detection.
(§5) The analysis is carried out at room temperature with absorption readings at 330, 340 and 520 nm, respectively.

[3] = Alizarin red (ARS) assay, lactate binding affinity; conditions: 20 mM phosphate buffer pH 7.4, room temperature, N.D. = not detectable
Procedure: as §1, §2, §3, §4, §5

[4] = Glucose affinity by 13C NMR assay; conditions: 1 mM glucose and 1 mM boronate, pH 7.4, 10 mM phosphate buffer, read-out: Binding Affinity [Kd Glucose (mM)] measured by 13C-NMR
From the text: The ^13C Glucose assay is an NMR based assay that takes advantage of the slow chemical shift exchange between the unbound glucose (A state) and the glucose bound to diboronates (B state). If
In a slow exchange regime NMR signals from both states (A and B) are observed and reflect the distinct chemical shifts of the two states as there is not significant interconversion in the timescale of the NMR experiments. Therefore the intensity of each peak directly reports on the population of that state.
The dissociation constant (Kd) could be defined as Kd=([A][B])/[AB], given At as the total concentration of specie A and Bt as total concentration of specie B, in the case in which At−Bt, the product at the equilibrium AB is given by the following equation:
[formula] so that knowing At, Bt and AB at the equilibrium is possible to determine Kd. […]
The samples are then investigated with a standard Carbon HSQC in a Bruker NMR instrument (RT, 32 scans). The intensities of the peaks of free glucose and glucose bound to boronates are determined by the use of TOPSPIN program (Bruker). Difference between intensity of free glucose and glucose bound peaks gives the concentration of product AB at the equilibrium so that Kd can be calculated using equation 1.

Chain of human serum albumin (HSA) (P02768 25-609): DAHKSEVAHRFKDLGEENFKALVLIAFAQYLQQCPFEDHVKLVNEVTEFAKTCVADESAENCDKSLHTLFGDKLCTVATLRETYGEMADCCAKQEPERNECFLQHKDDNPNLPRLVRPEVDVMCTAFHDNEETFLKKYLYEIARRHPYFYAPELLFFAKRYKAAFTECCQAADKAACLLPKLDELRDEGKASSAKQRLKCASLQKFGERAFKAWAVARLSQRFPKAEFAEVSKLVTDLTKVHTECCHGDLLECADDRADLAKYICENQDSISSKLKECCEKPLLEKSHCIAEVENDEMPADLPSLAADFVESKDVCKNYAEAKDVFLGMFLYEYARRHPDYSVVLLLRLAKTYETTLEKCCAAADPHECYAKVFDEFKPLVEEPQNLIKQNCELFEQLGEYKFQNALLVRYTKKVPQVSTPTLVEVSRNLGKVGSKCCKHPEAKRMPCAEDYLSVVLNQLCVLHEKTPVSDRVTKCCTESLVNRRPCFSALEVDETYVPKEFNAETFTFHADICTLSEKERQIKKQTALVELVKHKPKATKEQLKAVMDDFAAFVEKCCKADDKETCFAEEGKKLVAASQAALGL

| SMILES | Kd [2] [mM] | Kd [3] [mM] | Kd [4] [mM] | Glucose-dependent binding to albumin (19F-NMR signal) [1] |
| --- | --- | --- | --- | --- |
| O=C(O)CN(CCNC(=O)c1cc2c(c(C(F)(F)F)c1)COB2O)C(=O)c1cc2c(c(C(F)(F)F)c1)COB2O [Example 25, N-(1-Hydroxy-4-(trifluoromethyl)-1,3-dihydrobenzo[c][1,2]oxaborole-6-carbonyl)-N-(2-(1-hydroxy-4-(trifluoromethyl)-1,3-dihydrobenzo[c][1,2]oxaborole-6-carboxamido)ethyl)glycine] | 1.3 | 11 |  | bind to albumin in a glucose-dependent manner |
| O=C(NC[C@H](NC(=O)c1cc2c(c(C(F)(F)F)c1)COB2O)C(=O)O)c1cc2c(c(C(F)(F)F)c1)COB2O [Example 26, (S)-2,3-Bis(1-hydroxy-4-(trifluoromethyl)-1,3-dihydrobenzo[c][1,2]oxaborole-6-carboxamido)propanoic acid] | 0.2 | 10 |  | bind to albumin in a glucose-dependent manner |
| O=C(O)CCC(=O)N1C[C@H](NC(=O)c2cc3c(c(C(F)(F)F)c2)COB3O)[C@@H](NC(=O)c2cc3c(c(C(F)(F)F)c2)COB3O)C1 [Example 27, 4-((3S,4S)-3,4-Bis(1-hydroxy-4-(trifluoromethyl)-1,3-dihydrobenzo[c][1,2]oxaborole-6-carboxamido)pyrrolidin-1-yl)-4-oxobutanoic acid] | 1.1 | 41 |  |  |
| O=C(O)CN(CCNC(=O)c1cc2c(c(C(F)F)c1)COB2O)C(=O)c1cc2c(c(C(F)F)c1)COB2O [Example 31, N-(4-(Difluoromethyl)-1-hydroxy-1,3-dihydrobenzo[c][1,2]oxaborole-6-carbonyl)-N-(2-(4-(difluoromethyl)-1-hydroxy-1,3-dihydrobenzo[c][1,2]oxaborole-6-carboxamido)ethyl)glycine] | 0.8 | 100 |  |  |
| O=C(O)CN(CCNC(=O)c1cc(Cl)c2c(c1)B(O)OC2)C(=O)c1cc(Cl)c2c(c1)B(O)OC2 [Example 32, N-(4-Chloro-1-hydroxy-1,3-dihydrobenzo[c][1,2]oxaborole-6-carbonyl)-N-(2-(4-chloro-1-hydroxy-1,3-dihydrobenzo[c][1,2]oxaborole-6-carboxamido)ethyl)glycine] | 3.2 | 60.6 |  |  |
| O=C(O)CN(CCNC(=O)c1cc2c(cc1C(F)(F)F)COB2O)C(=O)c1cc2c(cc1C(F)(F)F)COB2O [Example 37, N-(1-Hydroxy-5-(trifluoromethyl)-1,3-dihydrobenzo[c][1,2]oxaborole-6-carbonyl)-N-(2-(1-hydroxy-5-(trifluoromethyl)-1,3-dihydrobenzo[c][1,2]oxaborole-6-carboxamido)ethyl)glycine] | 4.2 | 13 |  |  |
| CS(=O)(=O)c1cc(C(=O)NCCN(CC(=O)O)C(=O)c2cc3c(c(S(C)(=O)=O)c2)COB3O)cc2c1COB2O [Example 41, N-(1-Hydroxy-4-(methylsulfonyl)-1,3-dihydrobenzo[c][1,2]oxaborole-6-carbonyl)-N-(2-(1-hydroxy-4-(methylsulfonyl)-1,3-dihydrobenzo[c][1,2]oxaborole-6-carboxamido)ethyl)glycine] | 1.4 | 4.4 |  |  |
| O=C(O)c1c(C(F)(F)F)cc(B(O)O)cc1S(=O)(=O)c1cc(B(O)O)cc(C(F)(F)F)c1 [Example 43, 4-Borono-2-((3-borono-5-(trifluoromethyl)phenyl)sulfonyl)-6-(trifluoromethyl)benzoic acid] | 0.7 | 22 |  |  |
| O=C(O)CN=S(=O)(c1cc(OC(F)(F)F)cc(B(O)O)c1)c1cc(OC(F)(F)F)cc(B(O)O)c1 [Example 44, 2-((Bis(3-borono-5-(trifluoromethoxy)phenyl)(oxo)-λ6-sulfanylidene)amino)acetic acid] | 0.8 | 41 |  |  |

Further lines, with some results ahead:

| Kd [2] [mM] | Kd [3] [mM] | Kd [4] [mM] | SMILES | Glucose-dependent binding to albumin (19F-NMR signal) [1] |
| --- | --- | --- | --- | --- |
| 2.7 | 16 |  | NC(=O)CN(CCNC(=O)c1ccc(B(O)O)c(F)c1)C(=O)c1ccc(B(O)O)c(F)c1 [Example 3, N,N′-bis(4-borono-3-fluorobenzamido)-N-ethyl-glycine amide] | bind to albumin in a glucose-dependent manner; also recorded: glucose-sensitive albumin binding |
| 1.7 | 31 |  | O=C(O)CNC(=O)c1cc(B(O)O)cc(S(=O)(=O)c2cc(B(O)O)cc(C(F)(F)F)c2)c1 [Example 20] |  |
| 2 | 20 |  | O=C(O)CNC(=O)c1cc(B(O)O)cc(C(=O)c2cc(F)cc(B(O)O)c2)c1 [Example 22, (3-Borono-5-(3-borono-5-fluorobenzoyl)benzoyl)glycine] | bind to albumin in a glucose-dependent manner |
| 1.2 | 34 |  | O=C(O)CNC(=O)c1cc(B(O)O)cc(S(=O)(=O)c2cc(F)cc(B(O)O)c2)c1 [Example 24, (3-Borono-5-((3-borono-5-fluorophenyl)sulfonyl)benzoyl)glycine] |  |
|  |  | 0.06 | O=C(O)CN=S(=O)(c1cc(B(O)O)cc(C(F)(F)F)c1)c1cc(B(O)O)cc(C(F)(F)F)c1 [Example 30, 2-((Bis(3-borono-5-(trifluoromethyl)phenyl)(oxo)-λ6-sulfanylidene)amino)acetic acid] |  |
| 2.1 | 24.9 |  | O=C(O)CN=S(=O)(c1cc(B(O)O)cc(C(F)F)c1)c1cc(B(O)O)cc(C(F)F)c1 [Example 34, 2-((Bis(3-borono-5-(difluoromethyl)phenyl)(oxo)-λ6-sulfanylidene)amino)acetic acid] |  |
| 0.6 | 20 |  | O=C(O)CN=S(=O)(c1cc(Cl)cc(B(O)O)c1)c1cc(Cl)cc(B(O)O)c1 [Example 35, 2-((Bis(3-borono-5-chlorophenyl)(oxo)-λ6-sulfanylidene)amino)acetic acid] |  |
| 2.4 | 27 |  | O=C(O)CNC(=O)c1cc(B(O)O)cc(S(=O)(=O)c2cccc(B(O)O)c2)c1 [Example 39, (3-Borono-5-((3-boronophenyl)sulfonyl)benzoyl)glycine] |  |
